# Measurements as given in patent US20260262643A1, “HERBICIDAL BENZOXAZINES” (FMC CORPORATION, priority 2022, published 2026).
# Columns and labels:
# [1] = system: ryegrass, Italian; test: Test C postemergence; type: in vivo, Lolium multiflorum; settings: 10 days, 0 to 100 scale (0 no effect, 100 complete control)
# Procedure, shortened: (§1)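 Pre: seeds in loam/sand, directed soil spray. Post: 1–2 leaf plants, 2–10 cm. Cmpd in non-phytotoxic solvent + surfactant. Greenhouse 10 d; visual rating vs untreated, 0 = none, 100 = complete control.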
# [2] = system: barnyardgrass; test: Test D flooded paddy test; type: in vivo, Echinochloa crus-galli; settings: 250 g ai/ha, applied to paddy water, visual rating after 13 to 14 days, scale 0 to 100 (0 no effect, 100 complete control)
# Procedure, shortened: (§2)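 Rating scale 0–100 (0 no effect, 100 complete control), visual, versus controls. Readout at 13–14 days after in-water application to 2-leaf plants in pots flooded 3 cm deep.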
# [3] = system: soybean; test: Test C preemergence; type: in vivo, Glycine max
# Procedure, shortened: as §1
# [4] = system: blackgrass; test: Test C preemergence; type: in vivo, Alopecurus myosuroides
# Procedure, shortened: as §1
# [5] = system: oat, wild; test: Test C postemergence; type: in vivo, Avena fatua; settings: 10 days, 0 to 100 scale (0 no effect, 100 complete control)
# Procedure, shortened: as §1
# [6] = system: barnyardgrass; test: Test C preemergence; type: in vivo, Echinochloa crusgalli
# Procedure, shortened: as §1
# [7] = system: ryegrass, Italian; test: Test C preemergence; type: in vivo, Lolium multiflorum
# Procedure, shortened: as §1
# [8] = system: corn; test: Test C postemergence; type: in vivo, Zea mays; settings: 10 days, 0 to 100 scale (0 no effect, 100 complete control)
# Procedure, shortened: as §1
# [9] = system: oat, wild; test: Test C preemergence; type: in vivo, Avena fatua
# Procedure, shortened: as §1
# [10] = system: wheat; test: Test C preemergence; type: in vivo, Triticum aestivum
# Procedure, shortened: as §1
# [11] = system: foxtail, giant; test: Test C postemergence; type: in vivo, Setaria faberi; settings: 10 days, 0 to 100 scale (0 no effect, 100 complete control)
# Procedure, shortened: as §1
# [12] = system: wheat; test: Test C postemergence; type: in vivo, Triticum aestivum; settings: 10 days, 0 to 100 scale (0 no effect, 100 complete control)
# Procedure, shortened: as §1
# [13] = system: barnyardgrass; test: Test C postemergence; type: in vivo, Echinochloa crusgalli; settings: 10 days, 0 to 100 scale (0 no effect, 100 complete control)
# Procedure, shortened: as §1
# [14] = system: rice; test: Test D flooded paddy test; type: in vivo, Oryza sativa; settings: 250 g ai/ha, applied to paddy water, visual rating after 13 to 14 days, scale 0 to 100 (0 no effect, 100 complete control)
# Procedure, shortened: as §2
# [15] = system: kochia; test: Test C preemergence; type: in vivo, Bassia scoparia
# Procedure, shortened: as §1
# [16] = system: horseweed; test: Test C postemergence; type: in vivo, Erigeron canadensis; settings: 10 days, 0 to 100 scale (0 no effect, 100 complete control)
# Procedure, shortened: as §1
# [17] = system: foxtail, giant; test: Test C preemergence; type: in vivo, Setaria faberi
# Procedure, shortened: as §1
# [18] = system: galium; test: Test C postemergence; type: in vivo, Galium aparine; settings: 10 days, 0 to 100 scale (0 no effect, 100 complete control)
# Procedure, shortened: as §1
# [19] = system: ragweed; test: Test C preemergence; type: in vivo, Ambrosia artemisiifolia
# Procedure, shortened: as §1
# [20] = system: ragweed; test: Test C postemergence; type: in vivo, Ambrosia artemisiifolia; settings: 10 days, 0 to 100 scale (0 no effect, 100 complete control)
# Procedure, shortened: as §1
# [21] = system: soybean; test: Test C postemergence; type: in vivo, Glycine max; settings: 10 days, 0 to 100 scale (0 no effect, 100 complete control)
# Procedure, shortened: as §1
# [22] = system: pigweed, palmer; test: Test C postemergence; type: in vivo, Amaranthus palmeri; settings: 10 days, 0 to 100 scale (0 no effect, 100 complete control)
# Procedure, shortened: as §1
# [23] = system: sedge, umbrella; test: Test D flooded paddy test; type: in vivo, Cyperus difformis; settings: 250 g ai/ha, applied to paddy water, visual rating after 13 to 14 days, scale 0 to 100 (0 no effect, 100 complete control)
# Procedure, shortened: as §2
# [24] = system: pigweed, palmer; test: Test C preemergence; type: in vivo, Amaranthus palmeri
# Procedure, shortened: as §1
# [25] = system: blackgrass; test: Test C postemergence; type: in vivo, Alopecurus myosuroides; settings: 10 days, 0 to 100 scale (0 no effect, 100 complete control)
# Procedure, shortened: as §1
# [26] = system: ducksalad; test: Test D flooded paddy test; type: in vivo, Heteranthera limosa; settings: 250 g ai/ha, applied to paddy water, visual rating after 13 to 14 days, scale 0 to 100 (0 no effect, 100 complete control)
# Procedure, shortened: as §2
# [27] = system: corn; test: Test C preemergence; type: in vivo, Zea mays
# Procedure, shortened: as §1
# [28] = system: kochia; test: Test C postemergence; type: in vivo, Bassia scoparia; settings: 10 days, 0 to 100 scale (0 no effect, 100 complete control)
# Procedure, shortened: as §1
# [29] = 500 g ai/ha, preemergence, 0 to 100 scale (0 no effect, 100 complete control)
# [30] = Preemergence, 125 g ai/ha, 0 to 100 scale, 0 no effect, 100 complete control
compound,measurement,setting,value
"Cc1cccc2c1OC(C(F)(F)F)CN2C(=O)c1ccnc(-n2cnc(C(C)C)n2)c1 (single isomer, unassigned) [Compound 320]","Plant response rating, Ryegrass, Italian","[1]; 500 g ai/ha, postemergence",30
same,"Plant response rating, Ryegrass, Italian","[1]; Postemergence, 125 g ai/ha",20
same,"Plant response rating, Barnyardgrass (Flood)",[2],0
same,Soybean plant response rating,[3]; [29],100
same,"Plant response rating, Soybean",[3]; [30],10
same,Blackgrass plant response rating,[4]; [29],60
same,"Plant response rating, Blackgrass",[4]; [30],0
same,"Plant response rating, Oat, Wild","[5]; 500 g ai/ha, postemergence",10
same,"Plant response rating, Oat, Wild","[5]; Postemergence, 125 g ai/ha",10
same,Barnyardgrass plant response rating,[6]; [29],80
same,"Plant response rating, Barnyardgrass",[6]; [30],30
same,"Ryegrass, Italian plant response rating",[7]; [29],90
same,"Plant response rating, Ryegrass, Italian",[7]; [30],80
same,"Plant response rating, Corn","[8]; 500 g ai/ha, postemergence",40
same,"Plant response rating, Corn","[8]; Postemergence, 125 g ai/ha",10
same,"Oat, Wild plant response rating",[9]; [29],40
same,"Plant response rating, Oat, Wild",[9]; [30],10
same,Wheat plant response rating,[10]; [29],90
same,"Plant response rating, Wheat",[10]; [30],20
same,"Plant response rating, Foxtail, Giant","[11]; 500 g ai/ha, postemergence",40
same,"Plant response rating, Foxtail, Giant","[11]; Postemergence, 125 g ai/ha",20
same,"Plant response rating, Wheat","[12]; 500 g ai/ha, postemergence",30
same,"Plant response rating, Wheat","[12]; Postemergence, 125 g ai/ha",10
same,"Plant response rating, Barnyardgrass","[13]; 500 g ai/ha, postemergence",20
same,"Plant response rating, Barnyardgrass","[13]; Postemergence, 125 g ai/ha",0
same,"Plant response rating, Rice (Flood)",[14],0
same,Kochia plant response rating,[15]; [29],10
same,"Plant response rating, Kochia",[15]; [30],10
same,"Plant response rating, Horseweed","[16]; 500 g ai/ha, postemergence",40
same,"Plant response rating, Horseweed","[16]; Postemergence, 125 g ai/ha",10
same,"Foxtail, Giant plant response rating",[17]; [29],90
same,"Plant response rating, Foxtail, Giant",[17]; [30],20
same,"Plant response rating, Galium","[18]; 500 g ai/ha, postemergence",70
same,"Plant response rating, Galium","[18]; Postemergence, 125 g ai/ha",50
same,Ragweed plant response rating,[19]; [29],0
same,"Plant response rating, Ragweed",[19]; [30],0
same,"Plant response rating, Ragweed","[20]; 500 g ai/ha, postemergence",50
same,"Plant response rating, Ragweed","[20]; Postemergence, 125 g ai/ha",0
same,"Plant response rating, Soybean","[21]; 500 g ai/ha, postemergence",100
same,"Plant response rating, Soybean","[21]; Postemergence, 125 g ai/ha",50
same,"Plant response rating, Pigweed, Palmer","[22]; 500 g ai/ha, postemergence",50
same,"Plant response rating, Pigweed, Palmer","[22]; Postemergence, 125 g ai/ha",0
same,"Plant response rating, Sedge, Umbrella (Flood)",[23],0
same,"Pigweed, Palmer plant response rating",[24]; [29],100
same,"Plant response rating, Pigweed, Palmer",[24]; [30],20
same,"Plant response rating, Blackgrass","[25]; 500 g ai/ha, postemergence",10
same,"Plant response rating, Blackgrass","[25]; Postemergence, 125 g ai/ha",0
same,"Plant response rating, Ducksalad (Flood)",[26],0
same,Corn plant response rating,[27]; [29],30
same,"Plant response rating, Corn",[27]; [30],30
same,"Plant response rating, Kochia","[28]; 500 g ai/ha, postemergence",80
same,"Plant response rating, Kochia","[28]; Postemergence, 125 g ai/ha",40
